Like-named read-outs stand apart in the source and are kept apart here.
Assays:
[1] = tested on: HT29 cells; experiment: IL-1-induced IL-8 release in HT29 cells; format: cell-based; details: Homo sapiens, HT-29, IL-1β-stimulated HT29 cells, read-out: IC50 Values for Inhibition of Cytokine Release HT29 cells IL-8
Procedure: HT29 cells, a human colon adenocarcinoma cell line, are plated in a 96 well plate (24 hrs) and pre-treated with compounds at the desired concentration for 2 hours before addition of 5 ng/mL of IL-1β (Abcam) for 24 hours. Supernatants are harvested for IL-8 quantification by Sandwich ELISA (Duo-set, R&D System). The IC50 is determined from the dose response curve.

[2] = tested on: PBMCs; experiment: IL-2 and IFN gamma release in CD3/CD28 stimulated PBMC cells; format: cell-based; details: Homo sapiens
Procedure: PBMCs from healthy subjects are separated from whole blood using a density gradient (Lymphoprep, Axis-Shield Healthcare). Cells are added to a 96 well plate pre-coated with a mixture of CD3/CD38 monoclonal antibodies (0.3 μg/mL eBioscience and 3 μg/mL BD Pharmingen respectively). Compound at the desired concentration is then added to the wells and the plate left for 3 days under normal tissue culture conditions. Supernatants are harvested and IL-2 and IFN gamma release determined by Sandwich ELISA (Duo-set, R&D System). The IC50 is determined from the dose response curve.

[3] = tested on: d-U937 cells; experiment: LPS-induced TNFα/IL-8 release in d-U937 cells; format: cell-based; details: Homo sapiens, dU937, LPS-stimulated d-U937 cells
Procedure: U937 cells, a human monocytic cell line, are differentiated to macrophage-type cells by incubation with phorbol myristate acetate (PMA; 100 ng/mL) for 48 to 72 hr. Cells are pre-incubated with final concentrations of test compound for 2 hr and are then stimulated with 0.1 μg/mL of LPS (from E. Coli: 0111:B4, Sigma) for 4 hr. The supernatant is collected for determination of TNFα and IL-8 concentrations by sandwich ELISA (Duo-set, R&D systems). The inhibition of TNFα production is calculated as a percentage of that achieved by 10 μg/mL of BIRB796 at each concentration of test compound by comparison against vehicle control. The relative 50% effective concentration (REC50) is determined from the resultant concentration-response curve. The inhibition of IL-8 production is calculated at each concentration of test compound by comparison with vehicle control. The 50% inhibitory concentration (IC50) is determined from the resultant concentration-response curve.

[4] = tested on: intestinal mucosa biopsies from the inflamed regions of the colon of ulcerative colitis patients; experiment: Human biopsy assay (ex-vivo cytokine release); format: cell-based; details: 1 μg/mL, 24 hours; for Cytokine (IL-1β, IL-6 and IL-8) release compared to the DMSO control: biopsies from ulcerative colitis patients; for IL-1β release from biopsies of UC patients / IL-6 release from biopsies of UC patients / IL-8 release from biopsies of UC patients: relative to DMSO control = 100%
Procedure: Intestinal mucosa biopsies are obtained from the inflamed regions of the colon of IBD patients. The biopsy material is cut into small pieces (2-3 mm) and placed on steel grids in an organ culture chamber at 37° C. in a 5% CO2/95% O2 atmosphere in serum-free media. DMSO control or test compounds at the desired concentration are added to the tissue and incubated for 24 hr in the organ culture chamber. The supernatant is harvested for determination of IL-6, IL-8, IL-1P and TNFα levels by R&D ELISA.
Percentage inhibition of cytokine release by the test compounds is calculated relative to the cytokine release determined for the DMSO control (100%).

[5] = tested on: PBMCs; experiment: LPS-induced TNFα/IL-8 release in PBMC cells; format: cell-based; details: Homo sapiens, LPS-stimulated PBMCs, IL-8, read-out: IC50 Values for Inhibition of Cytokine Release PBMCs IL-8
Procedure: Peripheral blood mononuclear cells (PBMCs) from healthy subjects are separated from whole blood using a density gradient (Lymphoprep, Axis-Shield Healthcare). The PBMCs are seeded in 96 well plates and treated with compounds at the desired concentration for 2 hours before addition of 1 ng/mL LPS (Escherichia Coli 0111:B4 from Sigma Aldrich) for 24 hours under normal tissue culture conditions (37° C., 5% CO2). The supernatant is harvested for determination of IL-8 and TNFα concentrations by sandwich ELISA (Duo-set, R&D systems) and read on the fluorescence microplate reader (Varioskan® Flash, ThermoFisher Scientific). The concentration at 50% inhibition (IC50) of IL-8 and TNFα production is calculated from the dose response curve.

[6] = tested on: TNBS-induced colitis in mice; experiment: TNBS-induced colitis in mice; format: in vivo; set-up: Ulcer grade / LP inflammation: scale not given here; details: for LP inflammation / Ulcer grade: 2 days; for Activity in in vivo model of colonic inflammation (histopathology analysis) / Inflammatory cell infiltrate in the reticular and lamina propria zones: assay (iv) conducted over 2 days; for Ulcer grade and epithelial repair compared to the vehicle control: dosed orally at 5 mg/kg (Example 2: at 1 and at 5 mg/kg)
Procedure: On Day 0 of the study TNBS (200 μL) is administered intra-colonically via a plastic catheter followed by BID dosing of the vehicle, reference or test compound for 2 or 4 days. During the study animals are weighed every day and stool observations are made and recorded as a score, based on stool consistency. At the time of sacrifice on Day 2 (or Day 4) the large intestine is removed and the length and weight recorded. Sections of the colon are taken for either MPO analysis to determine neutrophil infiltration or for histopathology involving scoring to determine disease severity.

[7] = biological target: c-Src (Homo sapiens (Human), UniProt P12931); experiment: c-Src enzyme inhibition, Z-LYTE FRET; format: biochemical
Procedure: The enzyme inhibitory activities of compounds disclosed herein are determined by FRET using synthetic peptides labelled with both donor and acceptor fluorophores (Z-LYTE, Invitrogen Ltd., Paisley, UK).
The inhibitory activities of compounds of the invention against c-Src and Syk enzymes (Invitrogen), are evaluated in a similar fashion to that described hereinabove. The relevant enzyme (3000 ng/mL or 2000 ng/mL respectively, 2.5 μL) is incubated with the test compound (either 4 μg/mL, 0.4 μg/mL, 0.04 μg/mL, or 0.004 μg/mL, 2.5 μL each) for 2 hr at RT. The FRET peptides (8 μM. 2.5 μL), and appropriate ATP solutions (2.5 μL, 800 μM for c-Src, and 60 μM ATP for Syk) are then added to the enzymes/compound mixtures and incubated for 1 hr. Development reagent (protease, 5 μL) is added for 1 hr prior to detection in a fluorescence microplate reader (Varioskan® Flash, ThermoFisher Scientific).
In all cases, the site-specific protease cleaves non-phosphorylated peptide only and eliminates the FRET signal. Phosphorylation levels of each reaction are calculated using the ratio of coumarin emission (donor) over fluorescein emission (acceptor), for which high ratios indicate high phosphorylation and low ratios indicate low phosphorylation levels. The percentage inhibition of each reaction is calculated relative to non-inhibited control and the 50% inhibitory concentration (IC50 value) is then calculated from the concentration-response curve.

[8] = IFNγ, read-out: IC50 Values for Inhibition of Cytokine Release PBMCs IFNγ
[9] = IL-2, read-out: IC50 Values for Inhibition of Cytokine Release PBMCs IL-2
[10] = IL-8, read-out: IC50 Values for Inhibition of Cytokine Release dU937 cells IL-8

c-Src, sequence (P12931 whole entry, looked up): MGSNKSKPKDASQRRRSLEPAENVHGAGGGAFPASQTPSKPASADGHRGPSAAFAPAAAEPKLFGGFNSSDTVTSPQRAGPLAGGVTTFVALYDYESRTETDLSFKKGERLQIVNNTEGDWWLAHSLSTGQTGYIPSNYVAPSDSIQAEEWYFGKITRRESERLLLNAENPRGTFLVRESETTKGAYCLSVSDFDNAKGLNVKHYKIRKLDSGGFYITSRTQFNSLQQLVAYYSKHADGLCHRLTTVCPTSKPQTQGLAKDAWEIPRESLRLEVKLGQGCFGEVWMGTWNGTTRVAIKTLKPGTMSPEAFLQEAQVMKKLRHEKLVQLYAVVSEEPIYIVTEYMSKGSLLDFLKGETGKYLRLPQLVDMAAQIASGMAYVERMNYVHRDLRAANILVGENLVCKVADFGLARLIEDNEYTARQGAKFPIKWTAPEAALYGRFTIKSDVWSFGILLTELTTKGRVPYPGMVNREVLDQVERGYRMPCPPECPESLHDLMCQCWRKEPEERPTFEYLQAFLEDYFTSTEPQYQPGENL

| IC50 [1] | IC50 [3, 10] | IC50 [7] | Compound | IC50 [2, 8] | IC50 [2, 9] | Cytokine (IL-1β, IL-6 and IL-8) release compared to the DMSO control [4] | IL-1β release from biopsies of UC patients [4] | IL-6 release from biopsies of UC patients [4] | IL-8 release from biopsies of UC patients [4] | IC50 [5] | Activity in in vivo model of colonic inflammation (histopathology analysis) [6] | Inflammatory cell infiltrate in the reticular and lamina propria zones [6] | Ulcer grade and epithelial repair compared to the vehicle control [6] | further results |
| --- | --- | --- | --- | --- | --- | --- | --- | --- | --- | --- | --- | --- | --- | --- |
| 3.2 nM | 0.9 nM | 24 nM | C#CC(C)(C)c1cc(NC(=O)Nc2ccc(Oc3ccnc(Nc4cc(C)c5[nH]ncc5c4)n3)c3ccccc23)n(-c2ccc(C)cc2)n1 [Example 2, 1-(4-((2-((7-Methyl-1H-indazol-5-yl)amino)pyrimidin-4-yl)oxy)naphthalen-1-yl)-3-(3-(2-methylbut-3-yn-2-yl)-1-(p-tolyl)-1H-pyrazol-5-yl)urea] | 3.6 nM | 18 nM | significantly inhibited | 20 ± 13% | 37 ± 41% | 22 ± 21% | 2 nM | significant activity | marked reduction | marked improvements | IC50 ([3]; TNFα (method describes REC50 relative to BIRB796), read-out: IC50 Values for Inhibition of Cytokine Release dU937 cells TNFα): 0.4 nM; LP inflammation ([6]; Experiment 1, 1 mg/kg oral BID, TNBS + Vehicle 3.9 ± 0.3): 2.7 ± 0.4; Ulcer grade ([6]; Experiment 1, 1 mg/kg oral BID, TNBS + Vehicle 4.0 ± 0.5): 3.4 ± 0.6; LP inflammation ([6]; Experiment 1, 5 mg/kg oral BID, TNBS + Vehicle 3.9 ± 0.3): 1.7 ± 0.4; Ulcer grade ([6]; Experiment 1, 5 mg/kg oral BID, TNBS + Vehicle 4.0 ± 0.5): 2.4 ± 0.6 |
| 1.7 nM | 0.5 nM | 16 nM | C#CC(C)(C)c1cc(NC(=O)Nc2ccc(Oc3ccnc(Nc4cc(OC)cc(OCCOCCOCCOC)c4)n3)c3ccccc23)n(-c2ccc(C)cc2)n1 [Example 13, 1-(4-((2-((3-Methoxy-5-(2-(2-(2-methoxyethoxy)ethoxy)ethoxy)phenyl)amino)pyrimidin-4-yl)oxy)naphthalen-1-yl)-3-(3-(2-methylbut-3-yn-2-yl)-1-(p-tolyl)-1H-pyrazol-5-yl)urea] | 1.3 nM | 58.8 nM | significantly inhibited | 3 ± 3% | 37 ± 52% | 7 ± 8% | 1.7 nM | significant activity | marked reduction | marked improvements | Ulcer grade ([6]; Experiment 2, 1 mg/kg oral BID, TNBS + Vehicle 4.4 ± 0.2): 3.0 ± 0.4; LP inflammation ([6]; Experiment 2, 1 mg/kg oral BID, TNBS + Vehicle 4.5 ± 0.2): 2.8 ± 0.3; Ulcer grade ([6]; Experiment 2, 5 mg/kg oral BID, TNBS + Vehicle 4.4 ± 0.2): 2.9 ± 0.5; LP inflammation ([6]; Experiment 2, 5 mg/kg oral BID, TNBS + Vehicle 4.5 ± 0.2): 2.3 ± 0.3 |

Reference: US9790209B2, “Kinase inhibitors” (Respivert Limited, priority 2012, dated 2017)
